{"source": "patent US10865192B2", "about": "“Nicotine salts, co-crystals, and salt co-crystal complexes” (priority 2014, dated 2020)", "key": {"[1]": {"assay": "Static stability at elevated humidity (appearance and XRPD after storage)", "settings": "for Result (stability of screening orotic acid salts): Table 3, XRPD dry and after 1 week at 40° C./75% relative humidity (FIG. 14); for Result (stability of screening fumaric acid salts): Table 8, 40° C./75% RH, 1 day; for Static stability 25° C./96% RH: storage at 25° C./96% RH; for Static stability 25° C./96% RH / Static stability 40° C./75% RH: up to 1 week, appearance and XRPD; for Static stability 40° C./75% RH: storage at 40° C./75% RH"}, "[2]": {"settings": "for Total weight change 0-90% RH / Hygroscopicity / behaviour in GVS experiment / Relative humidity at which sample deliquesced in GVS (stable until) / On desorption, moisture retained down to / water lost by: 25° C.; for XRPD of residue after GVS: residue recovered after GVS isotherm; for Behaviour after deliquescence when humidity is reduced / On desorption, moisture retained down to / water lost by: GVS desorption; for Relative humidity at which sample deliquesced in GVS (stable until): GVS adsorption", "protocol": "Sorption isotherms were obtained using a SMS DVS Intrinsic moisture sorption analyzer, controlled by DVS Intrinsic Control software v1.0.1.2 (or v 1.0.1.3). The sample temperature was maintained at 25° C. by the instrument controls. The humidity was controlled by mixing streams of dry and wet nitrogen, with a total flow rate of 200 ml/min The relative humidity was measured by a calibrated Rotronic probe (dynamic range of 1.0-100% RH), located near the sample. The weight change, (mass relaxation) of the sample as a function of % RH was constantly monitored by the microbalance (accuracy±0.005 mg).\nTypically 5-20 mg of sample was placed in a tared mesh stainless steel basket under ambient conditions. The sample was loaded and unloaded at 40% RH and 25° C. (typical room conditions). A moisture sorption isotherm was performed as outlined below (2 scans giving 1 complete cycle). The standard isotherm was performed at 25° C. at 10% RH intervals over a 0-90% RH range. Data analysis was carried out using Microsoft Excel using DVS Analysis Suite v6.2 (or 6.1 or 6.0).\nThe sample is recovered after completion of the isotherm and re-analyzed by XRPD."}, "[3]": {"settings": "exposed to 650° C."}}, "note": "Where two headings read alike, the source gives them in different places.", "data": [{"compound": "CN1CCCC1c1cccnc1.O=C(O)c1cc(=O)[nH]c(=O)[nH]1.O=C(O)c1cc(=O)[nH]c(=O)[nH]1", "note": "(centres unmarked) [Formation in ethanol]", "values": [{"measurement": "Result (stability of screening orotic acid salts)", "setting": "[1]", "result": "Stable"}]}, {"compound": "CN1CCCC1c1cccnc1.O=C(O)c1cc(=O)[nH]c(=O)[nH]1", "note": "(centres unmarked) [Grinding]", "values": [{"measurement": "Result (stability of screening fumaric acid salts)", "setting": "[1]", "result": "Deliquesced"}]}, {"compound": "(S)-nicotine bis-orotate [Salt A]", "values": [{"measurement": "Total weight change 0-90% RH", "setting": "[2]; GVS isotherm, 0-90% RH", "result": "RH = 0.8 wt. %, steady change in"}, {"measurement": "Hygroscopicity / behaviour in GVS experiment", "setting": "[2]; 0-90% RH", "result": "only slightly hygroscopic"}, {"measurement": "XRPD of residue after GVS", "setting": "[2]", "result": "XRPD of residue showed no"}, {"measurement": "Thermal stability", "result": "thermally stable"}, {"measurement": "Nicotine liberated on decomposition (peak areas)", "setting": "[3]", "result": 97, "unit": "% peak areas"}, {"measurement": "Static stability 25° C./96% RH", "setting": "[1]", "result": "Pattern 1, runny material"}, {"measurement": "Static stability 25° C./96% RH", "setting": "[1]; listed as Orotate Pattern 1", "result": "runny material"}, {"measurement": "Static stability 25° C./96% RH", "setting": "[1]; listed as bis-orotate salt-co-crystal", "result": "runny material"}, {"measurement": "Static stability 40° C./75% RH", "setting": "[1]", "result": "No change"}]}, {"compound": "CN1CCCC1c1cccnc1.O=C(O)c1cc(=O)[nH]c(=O)[nH]1", "note": "(centres unmarked) [Formation in water]", "values": [{"measurement": "Result (stability of screening orotic acid salts)", "setting": "[1]", "result": "Stable"}]}, {"compound": "CN1CCCC1c1cccnc1.O=C(O)C=CC(=O)O", "note": "(centres unmarked) [Formation in neat nicotine]", "values": [{"measurement": "Result (stability of screening fumaric acid salts)", "setting": "[1]", "result": "Deliquesced"}]}, {"compound": "CN1CCCC1c1cccnc1.O=C(O)/C=C/C(=O)O", "note": "(centres unmarked) [Fumarate salt (prepared in THF), nicotine fumarate]", "values": [{"measurement": "Behaviour after deliquescence when humidity is reduced", "setting": "[2]; fumarate", "result": "remains a liquid"}, {"measurement": "Behaviour after deliquescence when humidity is reduced", "setting": "[2]; listed as Fumarate Pattern 1, fumarate", "result": "does not re-crystallize"}, {"measurement": "Weight gain from 0-90% RH in the GVS isotherm", "setting": "[2]; GVS isotherm, 0-90% RH", "result": 82, "unit": "%"}, {"measurement": "Total weight change 0-90% RH", "setting": "[2]; GVS isotherm, 0-90% RH", "result": "Total weight change 0-90% RH = 82 wt. %"}, {"measurement": "Hygroscopicity / behaviour in GVS experiment", "setting": "[2]; 0-90% RH, fumarate", "result": "wt. %, sample deliquesces and"}, {"measurement": "Hygroscopicity / behaviour in GVS experiment", "setting": "[2]; 0-90% RH, listed as Fumarate Pattern 1, fumarate", "result": "hygroscopic"}, {"measurement": "Nicotine liberated on decomposition (peak areas)", "setting": "[3]", "result": 97, "unit": "% peak areas"}, {"measurement": "Humidity at which the form deliquesces (elevated humidities)", "setting": "[1]", "result": "> 75", "unit": "% RH"}]}, {"compound": "(S)-nicotine mono-orotate hemi-hydrate [Salt B]", "values": [{"measurement": "Relative humidity at which sample deliquesced in GVS (stable until)", "setting": "[2]", "result": 80, "unit": "% RH then deliquesced On"}, {"measurement": "Relative humidity at which sample deliquesced in GVS (stable until)", "setting": "[2]; listed as Orotate Pattern 2", "result": 80, "unit": "% RH"}, {"measurement": "Behaviour after deliquescence when humidity is reduced", "setting": "[2]", "result": "re-crystallized"}, {"measurement": "On desorption, moisture retained down to / water lost by", "setting": "[2]", "result": "down to 60% RH XRPD of residue"}, {"measurement": "On desorption, moisture retained down to / water lost by", "setting": "[2]; listed as Orotate Pattern 2", "result": 60, "unit": "% RH"}, {"measurement": "Total weight change 0-90% RH", "setting": "[2]; GVS isotherm, 0-90% RH", "result": "RH = ~60 wt. %, stable until"}, {"measurement": "XRPD of residue after GVS", "setting": "[2]", "result": "Pattern 2 with some Orotate Pattern 1"}, {"measurement": "XRPD of residue after GVS", "setting": "[2]; listed as Orotate Pattern 2", "result": "contained some Pattern 1 material"}, {"measurement": "Nicotine liberated on decomposition (peak areas)", "setting": "[3]", "result": 97, "unit": "% peak areas"}, {"measurement": "Stability on exposure to high / elevated humidity", "setting": "[1]; high humidity, general statement", "result": "not stable to exposure to high humidity"}, {"measurement": "Static stability 25° C./96% RH", "setting": "[1]", "result": "Sticky after 24 hours, deliquesced"}, {"measurement": "Static stability 25° C./96% RH", "setting": "[1]; listed as Orotate Pattern 2", "result": "deliquesced"}, {"measurement": "Static stability 40° C./75% RH", "setting": "[1]", "result": "Pattern 2, sticky material"}, {"measurement": "Static stability 40° C./75% RH", "setting": "[1]; listed as Orotate Pattern 2", "result": "sticky material"}]}]}
